Assay: xn = mol fraction of the nth substance listed, in the solute-free solvent

Nc1[nH]c(=O)ncc1F + CS(C)=O + CC(C)O
solubility (g/100 g solution)
Conditions	283.15 K	288.15 K	293.15 K	298.15 K	303.15 K	308.15 K	313.15 K	318.15 K	323.15 K
x2 = 0.0788	0.0921	0.111	0.133	0.162	0.192	0.228	0.268	0.315	0.37
x2 = 0.1614	0.168	0.202	0.237	0.282	0.331	0.386	0.451	0.526	0.615
x2 = 0.2481	0.248	0.291	0.341	0.401	0.466	0.543	0.625	0.717	0.826
x2 = 0.3392	0.336	0.388	0.451	0.521	0.606	0.693	0.798	0.914	1.05
x2 = 0.435	0.424	0.487	0.569	0.648	0.743	0.852	0.967	1.1	1.25
x2 = 0.5359	0.503	0.57	0.645	0.734	0.837	0.957	1.09	1.24	1.41
x2 = 0.6424	0.591	0.662	0.745	0.833	0.948	1.08	1.21	1.38	1.55
x2 = 0.7549	0.704	0.789	0.876	0.987	1.11	1.25	1.41	1.59	1.77
x2 = 0.8739	0.823	0.901	1	1.11	1.24	1.4	1.57	1.75	1.95

Nc1ccc(Oc2ccc(N)cc2)cc1 + CS(C)=O + CCO
solubility (g/100 g solution)
Conditions	293.15 K	298.15 K	303.15 K	308.15 K	313.15 K	318.15 K	323.15 K	328.15 K	333.15 K
x2 = 0.06154	0.705	0.952	1.2	1.28	1.56	1.81	2.13	2.45	2.97
x2 = 0.1286	1.54	1.73	2.16	2.39	2.54	3.27	3.57	4.14	4.81
x2 = 0.2019	2.84	3.16	3.74	4.14	4.64	5.35	5.87	6.46	7.63
x2 = 0.2824	5.08	5.51	6.34	6.77	7.36	8.3	9.1	10.2	11.8
x2 = 0.3711	8.32	8.84	9.8	10.4	11.4	12.3	13.3	14.7	16.3
x2 = 0.4696	12.3	13.1	14.1	15	16	17.2	18.2	19.7	21.4
x2 = 0.5793	17	18.3	19.1	20.1	21	22.4	23.4	24.9	26.6
x2 = 0.7024	22	23.1	24	24.9	25.9	26.9	28.1	29.7	31.3
x2 = 0.8416	26.8	27.7	28.6	29.6	30.2	31.6	32.7	34.1	35.7

CN1CCN(C2=Nc3cc(Cl)ccc3Nc3ccccc32)CC1 + CS(C)=O + O
solubility (g/100 g solution)
Conditions	293.15 K	298.15 K	303.15 K	308.15 K	313.15 K	318.15 K	323.15 K	328.15 K	333.15 K
x2 = 0.02501	0.0367	0.0478	0.0615	0.0795	0.0996	0.126	0.159	0.2	0.249
x2 = 0.05457	0.375	0.473	0.591	0.724	0.873	1.06	1.28	1.54	1.84
x2 = 0.09003	1.33	1.64	1.96	2.36	2.78	3.26	3.88	4.56	5.3
x2 = 0.1334	3.26	3.82	4.52	5.18	6.01	6.93	8.01	9.03	10.2
x2 = 0.1876	5.71	6.6	7.64	8.74	9.88	11.3	12.7	14.2	15.7
x2 = 0.2572	9.16	10.5	12.1	13.6	15.4	17.2	19.1	21.3	23.4
x2 = 0.3501	12.9	14.6	16.6	18.6	20.7	23.1	25.5	27.9	30.5
x2 = 0.4801	16.2	18.2	20.4	22.7	25.2	27.9	30.6	33.4	36.3
x2 = 0.6751	18.4	20.7	23.2	25.8	28.6	31.3	34.3	37.4	40.4

O=c1ccc(-c2ccccc2)n[nH]1 + CS(C)=O + O
solubility (g/100 g solution)
Conditions	x2 = 0.02501	x2 = 0.05457	x2 = 0.09003	x2 = 0.1334	x2 = 0.1876	x2 = 0.2572	x2 = 0.3501	x2 = 0.4801	x2 = 0.6751
298.15 K	0.016	0.0442	0.124	0.333	0.899	2.36	6.21	14.3	30.9
303.15 K	0.0188	0.051	0.14	0.376	1.01	2.59	6.53	15.1	32.4
308.15 K	0.0223	0.0609	0.166	0.428	1.12	2.85	7.05	16.1	33.6
313.15 K	0.0267	0.0709	0.188	0.487	1.26	3.14	7.63	17.1	35.2
318.15 K	0.0334	0.0872	0.224	0.571	1.45	3.54	8.41	18.3	36.8

CN1CCN(C2=Nc3cc(Cl)ccc3Nc3ccccc32)CC1 + Cc1ccccc1 + CC(C)=O
323.15 K
Conditions	solubility (g/100 g solution)
x2 = 0.06574	13.6
x2 = 0.1358	15.9
x2 = 0.2124	17.4
x2 = 0.2962	17
x2 = 0.3864	17
x2 = 0.4859	16
x2 = 0.5953	14.7
x2 = 0.7159	12.9
x2 = 0.8497	10.3

CCC(C)n1ncn(-c2ccc(N3CCN(c4ccc(OCC5COC(Cn6cncn6)(c6ccc(Cl)cc6Cl)O5)cc4)CC3)cc2)c1=O (configuration not stated) + ClC(Cl)Cl + CCCCO
solubility (g/100 g solution)
Conditions	x2 = 0.06524	x2 = 0.1357	x2 = 0.2121	x2 = 0.2952	x2 = 0.3858	x2 = 0.4851	x2 = 0.5945	x2 = 0.7153	x2 = 0.8497
288.15 K	0.0548	0.12	0.336	0.987	3.22	7.01	12	17.9	23.9
293.15 K	0.0651	0.142	0.387	1.18	3.56	7.85	13.2	18.9	24.8
298.15 K	0.0777	0.171	0.445	1.39	3.92	8.74	14.3	20.1	25.6
303.15 K	0.0924	0.202	0.509	1.65	4.3	9.68	15.4	21.3	26.5
308.15 K	0.109	0.237	0.583	1.93	4.71	10.7	16.6	22.4	27.4

CCC(C)n1ncn(-c2ccc(N3CCN(c4ccc(OCC5COC(Cn6cncn6)(c6ccc(Cl)cc6Cl)O5)cc4)CC3)cc2)c1=O (configuration not stated) + ClC(Cl)Cl + CCCO
solubility (g/100 g solution)
Conditions	x2 = 0.05356	x2 = 0.113	x2 = 0.1792	x2 = 0.2535	x2 = 0.3375	x2 = 0.4331	x2 = 0.5431	x2 = 0.6708	x2 = 0.8209
288.15 K	0.0558	0.128	0.28	0.831	3.16	6.95	12.2	17.6	24.2
293.15 K	0.0691	0.153	0.347	1.04	3.51	7.71	13.2	18.8	25.1
298.15 K	0.0837	0.183	0.426	1.28	3.9	8.57	14.2	19.9	26.1
303.15 K	0.102	0.216	0.523	1.57	4.29	9.48	15.3	21.1	26.9
308.15 K	0.122	0.255	0.63	1.89	4.73	10.4	16.3	22.3	27.8

Source: the CheMixHub drug solubility set
